From patent US8552013B2, “Heterocyclic compounds based on N6-substituted adenine, methods of their preparation, their use for preparation of drugs, cosmetic preparations and growth regulators, pharmaceutical preparations, cosmetic preparations and growth regulators containing these compounds” (USTAV Experimentalni Botaniky Akademie Ved Ceske Republiky, priority 2001, dated 2013)

Experiments:
[1] = system: tobacco callus Nicotiana tabacum L. cv. Wisconsin 38; assay: Cytokinin-dependent tobacco callus growth; type: cell-based; settings: fresh callus weight at the concentration with highest activity
[2] = system: Amaranthus caudatus cotyledon/hypocotyl explants; assay: Amaranthus bioassay, betacyanin content; type: in vivo; settings: betacyanin content at the concentration with highest activity
[3] = system: Triticum aestivum cv. Hereward leaf tips; assay: Retention of chlorophyll in excised wheat leaf tips; type: in vivo; settings: chlorophyll retention at the concentration with highest activity
Summary of the method: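 Tips of first leaves from 7-day wheat (cv. Hereward) seedlings kept on compound solutions (10^−8 to 10^−4 M, from DMSO stock) for 96 h in the dark at 25 °C. Chlorophyll extracted in 80% ethanol at 80 °C and read at 665 nm. Activity at the best concentration expressed relative to 10^−4 M BAP (100%), five replicates.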

HOS = assay: Calcein AM cytotoxicity, HOS; type: cell-based; settings: Homo sapiens, HOS, 72 h

SMILES | Activity (%) [10^−4 mol · l^−1 BAP = 100%] [1] | activity (%) [10^−5 mol · l^−1 BAP = 100%] [2] | Activity (%) [10^−4 mol · l^−1 BAP = 100%] [3] | IC50 (HOS) [µM]
Fc1ccccc1CNc1ncnc2nc[nH]c12 [6-(2-fluorobenzylamino)purine] | 111 (±21) % | 116 (±3) % | 169 (±20) % | > 167
Cc1ccccc1CNc1ncnc2nc[nH]c12 [6-(2-methylbenzylamino)purine] | 118 (±3) % | 98 (±22) % | 158 (±29) % | > 167
Fc1cccc(CNc2ncnc3nc[nH]c23)c1 [6-(3-fluorobenzylamino)purine] | 135 (±8) % | 140 (±5) % | 200 (±25) % | > 167
Ic1cccc(CNc2ncnc3nc[nH]c23)c1 [6-(3-iodobenzylamino)purine] | 76 (±8) % | 79 (±3) % | 83.5 (±23) % | > 167
COc1cccc(CNc2ncnc3nc[nH]c23)c1 [6-(3-methoxybenzylamino)purine] | 76 (±20) % | 90 (±16) % | 178 (±16) % | > 167
Cc1ccc(CNc2ncnc3nc[nH]c23)cc1 [6-(4-methylbenzylamino)purine] | 52 (±8) % | 26 (±10) % | 35 (±23) % | > 167
Oc1cccc(CNc2ncnc3nc[nH]c23)c1 [meta-topolin, 6-(3-hydroxybenzylamino)purine] |  |  |  | > 167
Oc1ccccc1CNc1ncnc2nc[nH]c12 [ortho-topolin, 6-(2-hydroxybenzylamino)purine] |  |  |  | > 167
